{"source": "patent US20040162263A1", "about": "“Pharmaceutical formulations targeting specific regions of the gastrointesinal tract” (priority 2002, published 2004)", "key": {"L1210 leukemic mice": {"tested_on": "L1210 leukemic mice", "conditions": "cited from earlier work"}, "[1]": {"tested_on": "fetal hemoglobin levels (Hb F)", "conditions": "orally 8 mg/kg, repeatedly phlebotomized baboon; cited from earlier work"}, "[2]": {"experiment": "Physico-chemical properties of decitabine (solubility, stability)", "format": "physicochemical", "conditions": "room temp"}, "in vivo": {"experiment": "in vivo", "conditions": "dog", "protocol": "Pentostatin was administered to IVAP beagle dogs (n=3) at 0.2 mg/kg via intravenous, oral and through previously implanted intestinal ports (jejunum, ileum and colon). Extravascular administration of pentostatin was done in saline water for infusion or in a pH=7 phosphate buffer solution to control the intestinal pH. Blood samples were taken systemic and through a port in the portal vein, plasma separated and kept frozen at −20° C. until analysis.\nSix adult male beagle dogs (obtained from Summit Ridge Farms, Susquehanna, Pa.; between the ages of 1 and 5 years and weighed between 9 and 16 kg) were prepared with indwelling catheters in the Upper and Lower Small Intestines (USI and LSI), Colon (IC) and Portal Vein (PV) and were dosed with pentostatin at 0.2 mg/kg. The drug formulation was delivered either orally, intraveneously or, in most cases, through the indwelling ports and blood samples were drawn to determine the pharmacokinetics of each permutation. Systemic blood samples were collected from acutely placed IV catheters in the brachial vein, while PV samples were collected through the indwelling port and catheter. All blood samples were spun down, the plasma decanted, frozen and stored at −70 deg Celsius before subject to analysis.\nThe IVAP dog is prepared with indwelling catheters attached to subcutaneous ports (Titanium Vascular Access Portsg from Access Technologies in Skokie, Ill.) for delivery of drug formulations directly to various parts of the Gastrointestinal Tract. […] In addition, collecting blood samples directly from the portal vein during parenteral as well as oral and intestinal delivery can be combined with direct portal delivery studies to tweeze apart the first pass effects of both liver and intestinal cell enzymatic degradation effects on the drug being tested. Next, delivery of various formulations under different conditions can help in the development of effective oral delivery systems. Finally, delivery of absorption enhancers at various intervals, prior to the delivery of the drug, can be used to determine the recovery time of intestinal wall integrity following dosing with a particular formulation.\nIVAP dogs are fitted with three intestinal catheters, in addition to a portal vein catheter. Following induction of general anesthesia, the animal is placed in a supine position, scrubbed and prepped with betadine solution and draped under sterile conditions. A vertical midline incision is made through the skin and the abdominal cavity is entered. A 5F Heparin Coated CBAS® tubing, is inserted into the portal vein and secured with a purse string of 7-0 prolene suture. A small square of Surgicel® is placed over the insertion site and the fascia is closed over it to prevent leakage or dislodging of the tubing. The Upper Small Intestine (USI) port tubing is inserted 10 cm distal to the ligament of Treitz. The small bowel is then measured from the pyloric sphincter to the ileocecal valve and the Lower Small Intestine (LSI) port tubing is inserted one third of the way back from the ileocecal valve. The colon tubing is inserted 10 cm distal to the ileocecal valve (Colon). 7F Sylastic® tubing is used for each intestinal catheter. […] The tubings are secured with a silk “purse-string” suture and the modified Witzel Tunnel technique. After placement of the tubes, the bowel is secured to the abdominal wall and the proximal ends of the tubings are tunneled out of the abdominal cavity and into a subcutaneous pocket on the caudal aspect of the right chest, along with the PV catheter. The abdominal incision is closed in two layers. The Linea Alba is approximated with 0 Vicryl and the skin is closed with 2-0 Vicryl.\nIn case of IV administration, the drug is dissolved in normal sterile saline to a concentration of 1 mg/ml and is passed through a […] sterilizing filter prior to administration to the brachial vein."}, "[3]": {"experiment": "Physico-chemical properties of pentostatin (solubility, stability)", "format": "physicochemical"}}}
{"smiles": "Nc1ncn([C@@H]2O[C@H](CO)[C@@H](O)[C@H]2O)c(=O)n1", "note": "[5-azacytidine]", "values": [{"measurement": "activity parenteral versus oral", "setting": "L1210 leukemic mice", "result": "more active when administered parenterally than orally"}, {"measurement": "elevation in the fetal hemoglobin levels (Hb F)", "setting": "[1]", "result": "no elevation"}]}
{"smiles": "Nc1ncn([C@H]2C[C@H](O)[C@@H](CO)O2)c(=O)n1", "note": "[Decitabine monohydrate]", "values": [{"measurement": "stability", "setting": "[2]", "result": "stable"}]}
{"smiles": "OC[C@H]1O[C@@H](n2cnc3c2NC=NC[C@H]3O)C[C@@H]1O", "note": "[pentostatin, 2′-deoxycoformycin]", "values": [{"measurement": "AUC2/AUC1 (portal vein)", "setting": "in vivo; po", "result": 1.50}, {"measurement": "Relative bioavailability in reference to oral", "setting": "in vivo; male, beagle", "result": 620, "unit": "%"}, {"measurement": "Ratio Treat2/Treat1 of systemic bioavailability", "setting": "in vivo; male, beagle, po", "result": 0.51}, {"measurement": "bioavailability % change, AVERAGE", "setting": "in vivo; male, beagle, po", "result": "−26", "unit": "%"}, {"measurement": "decrease in the systemic pentostatin bioavailability", "setting": "in vivo; male, beagle, po", "result": 50, "unit": "%"}, {"measurement": "Mean systemic AUC0-inf", "setting": "in vivo; male, beagle, po, 0.2 mg/kg", "result": "10,425 ± 6,652 (64) ng × min/ml"}, {"measurement": "bioavailability", "setting": "in vivo; male, beagle, po, 0.2 mg/kg, Individual bioavailability % change", "result": 5, "unit": "%"}, {"measurement": "AUC(0-inf)", "setting": "in vivo; male, beagle, po, 0.2 mg/kg, Mean systemic AUC0-inf", "result": 340, "unit": "ng·h/mL"}, {"measurement": "bioavailability", "setting": "in vivo; male, beagle, po, 0.2 mg/kg, Relative bioavailability calculated in portal vein", "result": 100, "unit": "%"}, {"measurement": "bioavailability", "setting": "in vivo; male, beagle, po, 0.2 mg/kg, Relative bioavailability in reference to oral", "result": 100, "unit": "%"}, {"measurement": "bioavailability", "setting": "in vivo; male, beagle, po, 0.2 mg/kg, pH 7, systemic bioavailability (F), mean", "result": 14.3, "unit": "%"}, {"measurement": "bioavailability", "setting": "in vivo; male, beagle, po, 0.2 mg/kg, systemic bioavailability (F), mean", "result": 28, "unit": "%"}, {"measurement": "solubility in ethanol and methanol", "setting": "[3]", "result": "slightly soluble"}, {"measurement": "stability in aqueous solution", "setting": "[3]; 1 mg/ml", "result": "most stable at pH 7 or above and degrade quickly at pHs lower than 4"}, {"measurement": "solid stability at high temperature and humidity", "setting": "[3]; 37° C., 75% RH", "result": "loses the potency"}, {"measurement": "solubility in water", "setting": "[3]; at various pHs", "result": "freely soluble"}, {"measurement": "hygroscopicity", "setting": "[3]; crystalline form", "result": "not hygroscopic"}, {"measurement": "solid stable", "setting": "[3]; up to temperatures of 45° C.", "result": "at least 12 months"}]}
